# Measured values from US12478628B2, “Germ cell nuclear factor ligands and methods of use thereof” (Saint Louis University, priority 2020, dated 2025).
# Target: T1, GCNF LBD (Homo sapiens, UniProt Q15406)
# T1 construct: Human GCNF (NR6A1) LBD (residues 248-480); made in house; host or cells: E. coli BL(21) DE3
# T1 sequence (Q15406 248-480): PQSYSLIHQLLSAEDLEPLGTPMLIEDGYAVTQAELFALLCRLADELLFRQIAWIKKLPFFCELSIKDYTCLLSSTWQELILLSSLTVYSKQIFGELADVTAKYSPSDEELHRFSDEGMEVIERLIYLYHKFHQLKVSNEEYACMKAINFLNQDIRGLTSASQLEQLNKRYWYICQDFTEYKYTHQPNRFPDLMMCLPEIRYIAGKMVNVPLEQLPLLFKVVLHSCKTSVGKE
# Test: Differential scanning fluorimetry (DSF) of GCNF LBD
# Format: binding
# Settings: additional ligand screening
# Procedure: DSF Assay. GCNF LBD (5 μM) were mixed with 1× Sypro orange (Invitrogen) in DSF buffer (50 mM HEPES, 50 mM KCl, 5 mM TCEP, 0.5 mM EDTA, pH 7.5). Test compounds was added at 1:1 molar equivalence as protein or replaced with DMSO control. Ten microliters (10 μL)×5 replicates for each sample were plated on 384-well PCR microplate. No protein control and no ligand references were also run simultaneously in 5 replicates on the same plate. A total of 450 compounds (Life Chemicals) previously selected from a nuclear-receptor-biased library targeting REV-ERB were analyzed. Thermal stability was assessed on a Quantstudio 6 instrument (Biosystems) by ramping the temperature from 25° C. to 95° C. at 0.05° C./s and protein melt shifts were subsequently quantified by Boltzmann-derived melting temperature (Tm) using the Protein Thermal Shift (ThermoFisher) software. Positive hits were identified when a thermal shift (ΔTm) of at least 2° C. was observed.
# For the DSF ligand titration assay, ligands 30, 34 and 80 were titrated against 5 μM GCNF LBD with a ligand concentration series of 30, 20, 13, 9, 6, 4, 2.6, 1.7 and 0 μM from a 20 mM DMSO stock solution. DSF assay and analysis was then performed as described above. All DSF data were reported as mean±SEM.
row,change in Tm of GCNF,Structure (SMILES)
1,1.0 °C,CC(=O)Nc1ccc(NCC(O)Cn2c3ccccc3n3c(=O)cc(C)c(C#N)c23)cc1 (stereo not drawn) [U7]
2,0.9 °C,O=C1CCCC2=C1C(c1ccc(O)cc1)C1=C(CCCC1=O)O2 [U1]
3,2.3 °C,COc1ccc(NC(=O)N2CCC3(CC2)N=C(SCc2ccccc2)C(c2ccccc2)=N3)cc1OC [U2]

# Continued, compound first:
row,Structure (SMILES),change in Tm of GCNF
1,CCCCCn1c(SCC(=O)CC(=O)OCC)nc2cc(C(=O)NCc3ccco3)ccc2c1=O [R12],0.8 °C
2,CCOC(=O)C(C)Oc1cccc2c(=O)n(CC(=O)Nc3c(C)cc(C)cc3C)ccc12 (stereo not drawn) [R5],1.6 °C
3,COC(=O)COc1cccc2c(=O)n(CC(=O)NCCc3ccc(OC)c(OC)c3)ccc12 [R9],0.8 °C
